Assay results taken from patent publication US9566312B2, “Cyclic peptides and use as medicines” (priority 2012, dated 2017).
Starred links: 1 amine or outer side, 2 acyl side, 3 side chain; linkers in the order of their positions; H or OH if unused. Non-standard residues stand in square brackets, D forms with d. Residues, ends and D or L forms follow the SMILES beside them. X26 = C[C@H](CN1CCn2c(nnc2C(F)(F)F)C1)[C@@H](C(=O)[*:2])N(C)[*:1]; X41 = CC(C)N1CCN(C[C@@H](C)[C@@H](C(=O)[*:2])N(C)[*:1])CC1; X55 = C[C@H](CN(C)CC(=O)N(C)C)[C@@H](C(=O)[*:2])N(C)[*:1]; X68 = C[C@H](CCN1CCC(C#N)CC1)[C@@H](C(=O)[*:2])N(C)[*:1]; X53 = C[C@H](CN(C)Cc1cccnc1)[C@@H](C(=O)[*:2])N(C)[*:1]; MeBmt = C/C=C/C[C@@H](C)[C@@H](O)[C@H](NC)C(=O)O; NMeL = CN[C@@H](CC(C)C)C(=O)O; NMeV = CN[C@H](C(=O)O)C(C)C; dNMeA = CN[C@H](C)C(=O)O; Abu = CC[C@H](N)C(=O)O

Assays:
cyclophilin A (CypA) = cyclophilin A (CypA) (Homo sapiens (Human), UniProt P62937); assay: Inhibitor binding to cyclophilin proteins by SPR, CypA; parameters: unit not given here; settings: 1:1 binding model;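 note: Single-cycle kinetics on a Biacore T200, compound injected at several concentrations for 1 min each at 50 µL/min, then 10 min dissociation, in HEPES pH 7.4 buffer with 3% DMSO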
cyclophilin B (CypB) = cyclophilin B (CypB) (Homo sapiens (Human), UniProt P23284); assay: Inhibitor binding to cyclophilin proteins by SPR, CypB; parameters: unit not given here; settings: 1:1 binding model
In short: (§1)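 Mono-biotinylated avi-tagged cyclophilins were captured on a Biotin CAPture chip and compound injected by single-cycle kinetics in 10 mM HEPES pH 7.4, 150 mM NaCl, 0.05% P20, 3% DMSO. Contact 1 min per concentration at 50 μL/min, 10 min final dissociation; 1:1 model fit gave kon, koff, KD.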

CypF = CypF (Homo sapiens (Human), UniProt P30405); assay: Inhibitor binding to cyclophilin proteins by SPR, CypF; settings: 1:1 binding model
In short: as §1

[1] = test system: genotype 1b subgenomic HCV replicon in Huh7.5 cells; type: cell-based, hepatitis C virus; settings: genotype 1b replicon, 72 h incubation; read-out: RPLN-1b IC50
In short: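 Huh7.5 cells carrying genotype 1b subgenomic HCV replicon with renilla luciferase-neomycin reporter, in phenol red-free DMEM without G418. Luciferase measured after 72 h compound exposure relative to DMSO-treated cells; cytotoxicity (CC50) by Cell Titer-Glo.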

[2] = test system: peripheral blood mononuclear cells (PBMC); assay: Anti-proliferative or immunosuppressive activity, BrdU incorporation in PHA-stimulated PBMC; type: cell-based; settings: PHA 3 μg/ml, 60 hour compound treatment; read-out: EMV PBMC IC50
In short: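 Fresh PBMCs from two donors, 30,000 per well in X-VIVO 15 medium, stimulated with 3 μg/ml PHA to drive T-cell proliferation. Proliferation measured as BrdU incorporation into DNA by BrdU ELISA.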

[3] = target: organic anion transporting polypeptide 1B1 (OATP1B1) (Homo sapiens (Human), UniProt Q9Y6L6); assay: OATP assay in CHO-OATP1B1 cells;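 note: inhibition of probe substrate uptake into the cells, ten minutes exposure, accumulated substrate read by fluorescence once cells were lysed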
Sequence of organic anion transporting polypeptide 1B1 (OATP1B1) (Q9Y6L6 whole entry): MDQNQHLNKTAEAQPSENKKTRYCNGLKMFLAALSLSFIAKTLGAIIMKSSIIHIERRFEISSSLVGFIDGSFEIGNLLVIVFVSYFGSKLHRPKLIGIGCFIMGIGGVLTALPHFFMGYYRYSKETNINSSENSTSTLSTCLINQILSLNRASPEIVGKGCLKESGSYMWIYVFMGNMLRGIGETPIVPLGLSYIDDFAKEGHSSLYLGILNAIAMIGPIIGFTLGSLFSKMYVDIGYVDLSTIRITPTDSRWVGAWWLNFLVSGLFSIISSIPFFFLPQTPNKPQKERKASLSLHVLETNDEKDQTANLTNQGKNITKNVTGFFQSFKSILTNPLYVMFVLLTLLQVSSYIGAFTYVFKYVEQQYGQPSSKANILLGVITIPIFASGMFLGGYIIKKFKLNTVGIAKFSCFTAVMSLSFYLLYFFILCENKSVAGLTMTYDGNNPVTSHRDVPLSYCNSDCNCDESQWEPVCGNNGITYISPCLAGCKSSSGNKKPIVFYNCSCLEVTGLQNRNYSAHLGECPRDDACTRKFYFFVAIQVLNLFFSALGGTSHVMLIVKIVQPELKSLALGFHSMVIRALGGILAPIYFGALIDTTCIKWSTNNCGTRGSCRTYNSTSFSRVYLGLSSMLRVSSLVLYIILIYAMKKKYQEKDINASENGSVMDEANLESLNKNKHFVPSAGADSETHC

Sequence of cyclophilin A (CypA) (P62937 whole entry): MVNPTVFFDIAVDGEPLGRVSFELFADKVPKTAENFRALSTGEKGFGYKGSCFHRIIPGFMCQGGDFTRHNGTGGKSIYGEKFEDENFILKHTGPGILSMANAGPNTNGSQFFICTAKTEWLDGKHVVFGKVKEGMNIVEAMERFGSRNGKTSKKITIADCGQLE
Sequence of cyclophilin B (CypB) (P23284 34-216): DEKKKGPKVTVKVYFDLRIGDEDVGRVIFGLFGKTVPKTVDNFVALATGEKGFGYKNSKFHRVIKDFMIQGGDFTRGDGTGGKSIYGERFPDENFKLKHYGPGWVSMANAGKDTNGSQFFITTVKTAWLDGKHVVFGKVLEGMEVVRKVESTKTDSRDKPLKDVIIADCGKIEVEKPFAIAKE
Sequence of CypF (P30405 30-207): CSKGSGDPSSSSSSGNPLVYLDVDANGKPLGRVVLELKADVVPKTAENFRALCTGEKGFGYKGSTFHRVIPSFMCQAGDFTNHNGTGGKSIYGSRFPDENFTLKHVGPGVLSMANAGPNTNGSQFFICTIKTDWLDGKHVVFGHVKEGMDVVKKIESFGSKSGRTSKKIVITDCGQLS

| SMILES | CypA Kd (cyclophilin A (CypA)) | CypB Kd (cyclophilin B (CypB)) | CypF Kd (CypF) [nM] | IC50 [1] [nM] | IC50 [2] [nM] | IC50 [3] [nM] |
| --- | --- | --- | --- | --- | --- | --- |
| C/C=C/C[C@@H](C)[C@@H](O)[C@H]1C(=O)N[C@@H](CC)C(=O)N(C)[C@H](C)C(=O)N(C)[C@@H]([C@H](C)CN2CCn3c(nnc3C(F)(F)F)C2)C(=O)N[C@@H](C(C)C)C(=O)N(C)[C@@H](CC(C)C)C(=O)N[C@@H](C)C(=O)N[C@H](C)C(=O)N(C)[C@@H](CC(C)C)C(=O)N(C)[C@@H](CC(C)C)C(=O)N(C)[C@@H](C(C)C)C(=O)N1C [Compound 2.5.19, 3-[D-Ala]-4-[(2S,3R)-3-methyl-2-(methylamino)-4-(3-(trifluoromethyl)-5,6-dihydro-[1,2,4]triazolo[4,3-a]pyrazin-7(8H)-yl)butanoyl]-cyclosporin] (cyclo(A[dA][NMeL][NMeL][NMeV][MeBmt][Abu][dNMeA][X26]V[NMeL])) | 2.8 | 1.2 | 1.6 | 75 | 12600 | 1000 |
| C/C=C/C[C@@H](C)[C@@H](O)[C@H]1C(=O)N[C@@H](CC)C(=O)N(C)[C@H](C)C(=O)N(C)[C@@H]([C@H](C)CN(C)Cc2cccnc2)C(=O)N[C@@H](C(C)C)C(=O)N(C)[C@@H](CC(C)C)C(=O)N[C@@H](C)C(=O)N[C@H](C)C(=O)N(C)[C@@H](CC(C)C)C(=O)N(C)[C@@H](CC(C)C)C(=O)N(C)[C@@H](C(C)C)C(=O)N1C [Compound 2.5.25, 3-[D-Ala]-4-[(2S,3R)-3-methyl-4-(methyl(pyridin-3-ylmethyl)amino)-2-(methylamino)butanoyl]-cyclosporin] (cyclo(A[dA][NMeL][NMeL][NMeV][MeBmt][Abu][dNMeA][X53]V[NMeL])) | 1.8 | 1.0 | 1 | 22 | 5600 | 1000 |
| C/C=C/C[C@@H](C)[C@@H](O)[C@H]1C(=O)N[C@@H](CC)C(=O)N(C)[C@H](C)C(=O)N(C)[C@@H]([C@H](C)CN2CCN(C(C)C)CC2)C(=O)N[C@@H](C(C)C)C(=O)N(C)[C@@H](CC(C)C)C(=O)N[C@@H](C)C(=O)N[C@H](C)C(=O)N(C)[C@@H](CC(C)C)C(=O)N(C)[C@@H](CC(C)C)C(=O)N(C)[C@@H](C(C)C)C(=O)N1C [Compound 2.5.12, 3-[D-Ala]-4[(2S,3R)-2-Amino-4-(4-isopropyl-piperazin-1-yl)-butanoyl]-cyclosporin] (cyclo(A[dA][NMeL][NMeL][NMeV][MeBmt][Abu][dNMeA][X41]V[NMeL])) | 1.0 | 0.7 | 0.4 | 44 | 3100 | 2440 |
| C/C=C/C[C@@H](C)[C@@H](O)[C@H]1C(=O)N[C@@H](CC)C(=O)N(C)[C@H](C)C(=O)N(C)[C@@H]([C@H](C)CCN2CCC(C#N)CC2)C(=O)N[C@@H](C(C)C)C(=O)N(C)[C@@H](CC(C)C)C(=O)N[C@@H](C)C(=O)N[C@H](C)C(=O)N(C)[C@@H](CC(C)C)C(=O)N(C)[C@@H](CC(C)C)C(=O)N(C)[C@@H](C(C)C)C(=O)N1C [Compound 2.18.2, 3-[D-Ala]-4-[(2S,3R)-5-(4-cyanopiperidin-1-yl)-3-methyl-2-(methylamino)pentanoyl]-cyclosporin] (cyclo(A[dA][NMeL][NMeL][NMeV][MeBmt][Abu][dNMeA][X68]V[NMeL])) | 1.1 | 0.7 | 0.6 | 58 | 7300 | 2400 |
| C/C=C/C[C@@H](C)[C@@H](O)[C@H]1C(=O)N[C@@H](CC)C(=O)N(C)[C@H](C)C(=O)N(C)[C@@H]([C@H](C)CN(C)CC(=O)N(C)C)C(=O)N[C@@H](C(C)C)C(=O)N(C)[C@@H](CC(C)C)C(=O)N[C@@H](C)C(=O)N[C@H](C)C(=O)N(C)[C@@H](CC(C)C)C(=O)N(C)[C@@H](CC(C)C)C(=O)N(C)[C@@H](C(C)C)C(=O)N1C [Compound 2.5.27, 3-[D-Ala]-4-[(2S,3R)-4-((2-(dimethylamino)-2-oxoethyl)(methyl)amino)-3-methyl-2-(methylamino)butanoyl]-cyclosporin] (cyclo(A[dA][NMeL][NMeL][NMeV][MeBmt][Abu][dNMeA][X55]V[NMeL])) | 1.4 | 0.8 | 0.8 | 26 | 14800 | 2700 |
